The assay concerns the target T1, PI3K (p110α/p85α) (Homo sapiens, UniProt P42336).
T1 construct: purchased Carna Biosciences 07CBS-0402A
Description: PI3K activity assay (ADP Hunter Plus). Format: biochemical. As for the experimental part: The kinase activity was measured by using the commercial ADP Hunter™ Plus assay available from DiscoveRx (#33-016), which is a homogeneous assay to measure the accumulation of ADP, a universal product of kinase activity. […] Reaction was carried out for 1 hour at 25° C. Reagent A and B were sequentially added to the wells and plates were incubated for 30 min at 37° C. […] Values were normalized against the control activity included for each enzyme (i.e., 100% PI3 kinase activity, without compound). These values were plot against the inhibitor concentration and were fit to a sigmoid dose-response curve by using the Graphed software.

Setting [1] is: PI3Kα, quantitative results, read-out: PI3K α IC50.
[2] abbreviates: PI3Kα, class symbols, read-out: PI3K α IC50 (semi-quantitative).
[3] abbreviates: quantitative results, read-out: PI3K α IC50.

Like-named read-outs stand apart in the source and are kept apart here.

T1 sequence (P42336 whole entry): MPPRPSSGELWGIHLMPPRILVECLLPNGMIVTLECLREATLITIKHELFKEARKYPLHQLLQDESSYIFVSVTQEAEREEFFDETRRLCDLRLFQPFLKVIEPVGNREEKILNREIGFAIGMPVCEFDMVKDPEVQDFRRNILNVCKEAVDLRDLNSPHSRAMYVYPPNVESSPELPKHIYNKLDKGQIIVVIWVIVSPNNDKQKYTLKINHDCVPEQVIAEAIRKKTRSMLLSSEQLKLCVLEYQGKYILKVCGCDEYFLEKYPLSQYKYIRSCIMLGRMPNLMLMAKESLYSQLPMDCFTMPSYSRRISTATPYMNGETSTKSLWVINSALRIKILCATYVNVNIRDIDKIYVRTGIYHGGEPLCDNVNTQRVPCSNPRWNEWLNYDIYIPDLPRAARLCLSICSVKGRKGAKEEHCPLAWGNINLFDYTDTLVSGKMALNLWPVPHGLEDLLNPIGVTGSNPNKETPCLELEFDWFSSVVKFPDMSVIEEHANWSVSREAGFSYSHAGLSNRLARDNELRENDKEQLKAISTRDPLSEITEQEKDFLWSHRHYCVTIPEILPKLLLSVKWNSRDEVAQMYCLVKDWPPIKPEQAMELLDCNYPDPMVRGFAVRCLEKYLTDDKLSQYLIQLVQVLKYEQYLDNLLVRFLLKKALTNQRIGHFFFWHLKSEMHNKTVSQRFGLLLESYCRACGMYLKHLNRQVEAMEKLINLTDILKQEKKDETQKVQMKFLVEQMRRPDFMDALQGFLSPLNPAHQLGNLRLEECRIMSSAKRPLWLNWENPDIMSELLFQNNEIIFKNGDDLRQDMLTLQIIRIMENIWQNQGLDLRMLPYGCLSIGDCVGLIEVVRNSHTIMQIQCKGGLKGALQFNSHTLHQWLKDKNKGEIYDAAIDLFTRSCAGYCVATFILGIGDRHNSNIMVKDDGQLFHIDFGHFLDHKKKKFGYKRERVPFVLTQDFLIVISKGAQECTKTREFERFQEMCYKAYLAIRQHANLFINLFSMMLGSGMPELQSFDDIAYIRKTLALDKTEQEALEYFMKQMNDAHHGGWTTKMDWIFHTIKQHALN
T1 sequence (P27986 whole entry partner): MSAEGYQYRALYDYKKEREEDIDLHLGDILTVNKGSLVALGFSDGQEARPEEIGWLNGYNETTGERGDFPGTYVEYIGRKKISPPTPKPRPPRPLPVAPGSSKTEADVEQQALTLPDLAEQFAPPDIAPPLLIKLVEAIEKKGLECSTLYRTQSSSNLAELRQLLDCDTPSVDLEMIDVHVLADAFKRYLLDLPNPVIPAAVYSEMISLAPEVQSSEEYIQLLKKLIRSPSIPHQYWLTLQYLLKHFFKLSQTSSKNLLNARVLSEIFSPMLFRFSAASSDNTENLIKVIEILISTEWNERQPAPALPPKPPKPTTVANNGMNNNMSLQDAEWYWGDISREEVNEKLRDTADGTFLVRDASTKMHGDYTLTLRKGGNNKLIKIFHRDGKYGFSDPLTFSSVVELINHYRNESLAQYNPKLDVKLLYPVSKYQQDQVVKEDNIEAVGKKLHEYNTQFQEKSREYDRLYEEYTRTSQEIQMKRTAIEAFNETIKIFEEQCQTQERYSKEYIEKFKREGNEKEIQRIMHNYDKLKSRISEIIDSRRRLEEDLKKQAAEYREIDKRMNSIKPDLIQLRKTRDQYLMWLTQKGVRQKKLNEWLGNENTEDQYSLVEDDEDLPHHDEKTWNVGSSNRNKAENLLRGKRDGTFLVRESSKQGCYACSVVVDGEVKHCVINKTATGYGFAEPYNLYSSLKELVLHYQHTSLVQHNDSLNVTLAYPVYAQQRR

The IC50 is the concentration that inhibits the measured activity by half. Consider `CCOC(=O)N1CCc2nc3c(N4CCOCC4)nc(-c4cccc(O)c4)cn3c2C1` [2-01, 3-(3-Hydroxy-phenyl)-1-morpholin-4-yl-7,8-dihydro-5H-2,4-a,6,9-tetraaza-fluorene-6-carboxylic acid ethyl ester], for which the IC50 under setting [1] turned out to be 207 nM.
Turning to `Oc1cccc(-c2cn3c4c(nc3c(N3CCOCC3)n2)CCNC4)c1` [2-02], the IC50 under setting [1] is 185 nM.
Turning to `CCOC(=O)N1CCc2nc3c(N4CCOCC4)nc(-c4cccc5[nH]ncc45)cn3c2C1` [2-03, 3-(1H-Indazol-4-yl)-1-morpholin-4-yl-7,8-dihydro-5H-2,4-a,6,9-tetraaza-fluorene-6-carboxylic acid ethyl ester], the IC50 under setting [2] was above 1000 nM.
The same measure, in the same setting: in the case of `c1cncc(CN2CCc3nc4c(N5CCOCC5)nc(-c5cccc6[nH]ncc56)cn4c3C2)c1` [2-05] it was above 1000 nM; in that of `c1cc(-c2cn3c4c(nc3c(N3CCOCC3)n2)CCN(Cc2nccs2)C4)c2cn[nH]c2c1` [2-06], above 1000 nM.
With `c1cc(-c2cn3c4c(nc3c(N3CCOCC3)n2)CCN(Cc2ccncc2)C4)c2cn[nH]c2c1` [2-07], the IC50 under setting [1] stood at 852 nM.
On to `c1ccc(CN2CCc3nc4c(N5CCOCC5)nc(-c5cccc6[nH]ncc56)cn4c3C2)nc1` [2-08], for which, under setting [1], the IC50 was found to be 439 nM.
With `c1cc(-c2cn3c4c(nc3c(N3CCOCC3)n2)CCN(CC2CCOCC2)C4)c2cn[nH]c2c1` [2-09], under setting [2], the IC50 is above 1000 nM.
The same measure, in the same setting: in the case of `CS(=O)(=O)c1ccc(CN2CCc3nc4c(N5CCOCC5)nc(-c5cccc6[nH]ncc56)cn4c3C2)cc1` [2-10] it was above 1000 nM.
Regarding `c1coc(CN2CCc3nc4c(N5CCOCC5)nc(-c5cccc6[nH]ncc56)cn4c3C2)c1` [2-11], the IC50 under setting [1] was determined as 1780 nM.
With `c1cc(-c2cn3c4c(nc3c(N3CCOCC3)n2)CCN(Cc2ccoc2)C4)c2cn[nH]c2c1` [2-12], the IC50 under setting [1] turned out to be 708 nM.
As to `c1cc(-c2cn3c4c(nc3c(N3CCOCC3)n2)CCN(Cc2ncc[nH]2)C4)c2cn[nH]c2c1` [2-13], under setting [2], the IC50 was above 1000 nM.
Still for that read-out and setting: in the case of `c1cc(-c2cn3c4c(nc3c(N3CCOCC3)n2)CCN(CC2CNC2)C4)c2cn[nH]c2c1` [2-14] it was above 1000 nM.
As to `CS(=O)(=O)c1cccc(CN2CCc3nc4c(N5CCOCC5)nc(-c5cccc6[nH]ncc56)cn4c3C2)c1` [2-15], under setting [1], the IC50 turned out to be 3330 nM.
Same read-out and setting: in the case of `CCOC(=O)N1CCc2nc3c(N4CCOCC4)nc(-c4cnc(OC)nc4)cn3c2C1` [2-19] it was 724 nM.
Same read-out and setting: as for `CCOC(=O)N1CCc2nc3c(N4CCOCC4)nc(-c4cnc5[nH]ccc5c4)cn3c2C1` [2-20], the figure is 1050 nM.
Consider `CCOC(=O)N1CCc2nc3c(N4CCOCC4)nc(-c4ccc(N)nc4)cn3c2C1` [2-21], for which, under setting [2], the IC50 is above 1000 nM.
Consider `CCOC(=O)N1CCc2nc3c(N4CCOCC4)nc(-c4ccc5[nH]ccc5c4)cn3c2C1` [2-22], for which the IC50 under setting [2] is above 1000 nM.
With `CCOC(=O)N1CCc2nc3c(N4CCOCC4)nc(-c4cncc(OC)c4)cn3c2C1` [2-23], the 50% inhibitory concentration (IC50) under setting [1] worked out at 2700 nM.
Take `CCOC(=O)N1CCc2nc3c(N4CCOCC4)nc(-c4cccnc4)cn3c2C1` [2-24]: the half-inhibitory concentration (IC50) under setting [2] is above 1000 nM.
For `CCOC(=O)N1CCc2nc3c(N4CCOCC4)nc(-c4cnc(N)c(C(F)(F)F)c4)cn3c2C1` [2-25], under setting [2], the 50% inhibitory concentration (IC50) is above 1000 nM.
Same read-out and setting: in the case of `CCOC(=O)N1CCc2nc3c(N4CCOCC4)nc(-c4c(F)ccc5[nH]ccc45)cn3c2C1` [2-26] it was above 1000 nM.
As for `CCOC(=O)N1CCc2nc3c(N4CCOCC4)nc(-c4cnc(OC)nc4)c(Cl)n3c2C1` [2-27], the IC50 under setting [1] amounted to 603 nM.
As to `CCOC(=O)N1CCc2nc3c(N4CCOCC4)nc(-c4cnc5[nH]ccc5c4)c(Cl)n3c2C1` [2-28], the IC50 under setting [1] is 1070 nM.
Turning to `CCOC(=O)N1CCc2nc3c(N4CCOCC4)nc(-c4ccc5[nH]ccc5c4)c(Cl)n3c2C1` [2-29], the IC50 under setting [2] is above 1000 nM.
On the same count and under the same terms, as for `CCOC(=O)N1CCc2nc3c(N4CCOCC4)nc(-c4cncc(OC)c4)c(Cl)n3c2C1` [2-30], the figure is above 1000 nM.
Still for that read-out and setting: in the case of `CCOC(=O)N1CCc2nc3c(N4CCOCC4)nc(-c4cccnc4)c(Cl)n3c2C1` [2-31] it was above 1000 nM.
Take `CCOC(=O)N1CCc2nc3c(N4CCOCC4)nc(-c4cnc(N)c(C(F)(F)F)c4)c(Cl)n3c2C1` [2-33]: under setting [1], the IC50 came to 1780 nM.
Consider `CC(C)CN1CCc2nc3c(N4CCOCC4)nc(-c4cnc(N)nc4)cn3c2C1` [2-35], for which the IC50 under setting [1] was 692 nM.
For `Nc1ncc(-c2cn3c4c(nc3c(N3CCOCC3)n2)CCN(CC2CCOCC2)C4)cn1` [2-36], under setting [2], the IC50 is above 1000 nM.
Take `Nc1ncc(-c2cn3c4c(nc3c(N3CCOCC3)n2)CCN(CC2CCCCC2)C4)cn1` [2-37]: under setting [1], the IC50 amounted to 363 nM.
With `CCOC(=O)C1CCC(N2CCc3nc4c(N5CCOCC5)nc(-c5cnc(N)nc5)cn4c3C2)CC1` (centres unmarked) [2-40], the IC50 under setting [2] was above 1000 nM.
On the same count and under the same terms, in the case of `CCOC(=O)N1CCc2nc3c(N4CCOCC4)nc(-c4cncnc4)cn3c2C1` [2-41] it was above 1000 nM.
`CC(C)C(=O)N1CCc2nc3c(N4CCOCC4)nc(-c4cnc(N)nc4)cn3c2C1` [2-43]: under setting [1], the IC50 came to 550 nM.
Take `CC(C)NC(=O)N1CCc2nc3c(N4CCOCC4)nc(-c4cnc(N)nc4)cn3c2C1` [2-44]: under setting [2], the IC50 was below 500 nM.
With `CCN1CCc2nc3c(N4CCOCC4)nc(-c4cnc(N)nc4)cn3c2C1` [2-45], under setting [1], the IC50 worked out at 257 nM.
In the case of `c1nc(NCC2CC2)ncc1-c1cn2c3c(nc2c(N2CCOCC2)n1)CCN(CC1CC1)C3` [2-47], the IC50 under setting [2] is above 1000 nM.
For the molecule `COC(=O)N1CCc2nc3c(N4CCOCC4)nc(-c4cnc(N)nc4)cn3c2C1` [2-48], the IC50 under setting [1] was 100 nM.
On the same count and under the same terms, in the case of `CCCNC(=O)N1CCc2nc3c(N4CCOCC4)nc(-c4cnc(N)nc4)c(Cl)n3c2C1` [2-54] it was 148 nM; in that of `CCCCS(=O)(=O)N1CCc2nc3c(N4CCOCC4)nc(-c4cnc(N)nc4)cn3c2C1` [2-55], 33 nM; in that of `Nc1ncc(-c2nc(N3CCOCC3)c3nc4c(n3c2Cl)CN(S(=O)(=O)c2ccccc2)CC4)cn1` [2-58], 101 nM.
The same measure, in the same setting: as for `N#CCCCS(=O)(=O)N1CCc2nc3c(N4CCOCC4)nc(-c4cnc(N)nc4)cn3c2C1` [2-77], the figure is 19 nM; as for `Nc1ncc(-c2cn3c4c(nc3c(N3CCOCC3)n2)CCN(CC2CCCC2)C4)cn1` [2-80], 340 nM.
The same measure, in the same setting: as for `Nc1ncc(-c2cn3c4c(nc3c(N3CCOCC3)n2)CCN(C2CCCCC2)C4)cn1` [2-81], the figure is 238 nM; as for `Nc1ncc(-c2cn3c4c(nc3c(N3CCOCC3)n2)CCN(Cc2ccnnc2)C4)cn1` [2-84], 175 nM.
As to `CCCC(=O)N1CCc2nc3c(N4CCOCC4)nc(-c4cnc(N)nc4)cn3c2C1` [2-86], the IC50 under setting [1] was 94 nM.
For the molecule `COc1cccc(CN2CCc3nc4c(N5CCOCC5)nc(-c5cnc(N)nc5)cn4c3C2)c1` [2-95], under setting [1], the IC50 was determined as 240 nM.
As to `Nc1ncc(-c2cn3c4c(nc3c(N3CCOCC3)n2)CCN(Cc2ccc(OC(F)(F)F)cc2)C4)cn1` [2-100], under setting [1], the IC50 turned out to be 310 nM.
Same read-out and setting: as for `Nc1ncc(-c2cn3c4c(nc3c(N3CCOCC3)n2)CCN(Cc2ccncc2)C4)cn1` [2-107], the figure is 125 nM.
Regarding `Nc1ncc(-c2cn3c4c(nc3c(N3CCOCC3)n2)CCN(S(=O)(=O)C2CNC2)C4)cn1` [2-110], the IC50 under setting [3] amounted to 7 nM.
On the same count and under the same terms, in the case of `Nc1ncc(-c2cn3c4c(nc3c(N3CCOCC3)n2)CCN(Cc2nccs2)C4)cn1` [2-111] it was 139 nM; in that of `Nc1ncc(-c2cn3c4c(nc3c(N3CCOCC3)n2)CCN(C(=O)Nc2cc(Cl)cc(Cl)c2)C4)cn1` [2-112], 90 nM; in that of `N#Cc1cccc(NC(=O)N2CCc3nc4c(N5CCOCC5)nc(-c5cnc(N)nc5)cn4c3C2)c1` [2-113], 81 nM.

The record behind these values is patent publication US20130029967A1, “Fused Imidazo [3,2 - D] Pyrazines as P13 Kinase Inhibitors” (Centro Nacional de Investigaciones Oncologicas (CNIO), priority 2009, published 2013).
